In paper PMC6407204, “Oral administration of the cannabigerol derivative VCE-003.2 promotes subventricular zone neurogenesis and protects against mutant huntingtin-induced neurodegeneration” (Translational Neurodegeneration, 2019):

Legend:
CYP3A4 = target: T1, CYP3A4 (Homo sapiens, UniProt P08684); assay: biochemical; type: in vitro ADME; settings: human liver microsomes
T1 construct: from tissue; host or cells: human liver microsomes
Method: Supplementary file 40035_2019_148_MOESM2_ESM.pdf: Additional file 2: Cytochrome P450 Inhibition (IC50 Determination). CYP1A Inhibition. VCE-003.2 (0.1, 0.25, 1, 2.5, 10, 25 μM in DMSO; final DMSO concentration = 0.3%) was incubated with human liver microsomes (0.25 mg/mL) and NADPH (1 mM) in the presence of the probe substrate ethoxyresorufin (0.5 μM) for 5 min at 37 °C. The selective CYP1A inhibitor, alpha-naphthoflavone, was screened alongside the test compounds as a positive control. CYP2B6 Inhibition. VCE-003.2 (0.1, 0.25, 1, 2.5, 10, 25 μM in DMSO; final DMSO concentration = 0.3%) was incubated with human liver microsomes (0.1 mg/mL) and NADPH (1 mM) in the presence of the probe substrate bupropion (110 μM) for 5 min at 37 °C. The selective CYP2B6 inhibitor, ticlopidine, was screened alongside the test compounds as a positive control. CYP2C8 Inhibition. VCE-003.2 (0.1, 0.25, 1, 2.5, 10, 25 μM in DMSO; final DMSO concentration = 0.3%) was incubated with human liver microsomes (0.25 mg/mL) and NADPH (1 mM) in the presence of the probe substrate paclitaxel (7.5 μM) for 30 min at 37 °C. The selective CYP2C8 inhibitor, montelukast, was screened alongside the test compounds as a positive control. CYP2C9 Inhibition. VCE-003.2 (0.1, 0.25, 1, 2.5, 10, 25 μM in DMSO; final DMSO concentration = 0.3%) was incubated with human liver microsomes (1 mg/mL) and NADPH (1 mM) in the presence of the probe substrate tolbutamide (120 μM) for 60 min at 37 °C. The selective CYP2C9 inhibitor, sulphaphenazole, was screened alongside the test compounds as a positive control. CYP2C19 Inhibition. VCE-003.2 (0.1, 0.25, 1, 2.5, 10, 25 μM in DMSO; final DMSO concentration = 0.3%) was incubated with human liver microsomes (0.5 mg/mL) and NADPH (1 mM) in the presence of the probe substrate mephenytoin (25 μM) for 60 min at 37 °C. The selective CYP2C19 inhibitor, tranylcypromine, was screened alongside the test compounds as a positive control. CYP2D6 Inhibition. VCE-003.2 (0.1, 0.25, 1, 2.5, 10, 25 μM in DMSO; final DMSO concentration = 0.3%) was incubated with human liver microsomes (0.5 mg/mL) and NADPH (1 mM) in the presence of the probe substrate dextromethorphan (5 μM) for 5 min at 37 °C. […] CYP3A4 Inhibition. VCE-003.2 (0.1, 0.25, 1, 2.5, 10, 25 μM in DMSO; final DMSO concentration = 0.3%) was incubated with human liver microsomes (0.1 mg/mL) and NADPH (1 mM) in the presence of the probe substrate midazolam (2.5 μM) for 5 min at 37 °C. The selective CYP3A4 inhibitor, ketoconazole, was screened alongside the test compounds as a positive control. CYP3A4 Inhibition. VCE-003.2 (0.1, 0.25, 1, 2.5, 10, 25 μM in DMSO; final DMSO concentration = 0.3%) was incubated with human liver microsomes (0.5 mg/mL) and NADPH (1 mM) in the presence of the probe substrate testosterone (50 μM) for 5 min at 37 °C. The selective CYP3A4 inhibitor, ketoconazole, was screened alongside the test compounds as a positive control. For the CYP1A incubations, the reactions were terminated by methanol, and the formation of the metabolite, resorufin, was monitored by fluorescence (excitation wavelength = 535 nm, emission wavelength = 595 nm). For the CYP2B6, CYP2C9, CYP2C19, CYP2D6, and CYP3A4 incubations, the reactions were terminated by methanol. The samples were centrifuged, and the supernatants combined for the simultaneous analysis of 4-hydroxytolbutamide, 4-hydroxymephenytoin, dextrorphan, and 1-hydroxymidazolam by LC-MS/MS. Hydroxybupropion, 6α-hydroxypaclitaxel and 6ß-hydroxytestosterone were analyzed separately by LC-MS/MS. A decrease in the formation of the metabolites compared to vehicle control was used to calculate IC50 values. (PDF 323 kb)

[1] = system: CTIP2 transcriptional activity; assay: CTIP2 luciferase transcriptional reporter assay (A4-MARS) in P19 cells; type: cell-based, mouse; settings: 24 h after transfection, neuronal differentiation conditions, vs vehicle
Method: All reagents, unless indicated, were from Sigma-Aldrich (St. Louis, MO, USA). The synthesis and structure of VCE-003.2 were previously described. Mouse embryonic teratocarcinoma P19 were cultured in high-glucose DMEM (Invitrogen) supplemented with 10% fetal bovine serum and 1% penicillin/streptomycin. P19 cells were plated in 24-well plates and transfected with Lipofectamine 2000 reagent according to the manufacture’s protocol (Invitrogen). Twenty-four hours post transfection, cells were collected for RNA extraction or luciferase assay determinations. P19 neurosphere formation assay was performed using dissociated P19 cells cultured in high-glucose DMEM (Invitrogen) supplemented with 5% of fetal bovine serum and 0. 5 μM retinoic acid. Twenty-four hours later the mean neurosphere size was quantified. Luciferase construct with the MAR sequence A4 of the Ctip2 promoter was kindly provided (R. Grosschedl, Max-Planck-Institute of Immunobiology and Epigenetics, Freiburg, Germany).
To study CTIP2 transcriptional activity P19 cells were seeded in 24-well plates and transiently co-transfected with the luciferase reporter vector MARS-A4-luc using Roti-Fect (Carl Roth, Karlsruhe, Germany) following the manufacturer’s instructions. […] After stimulation, the luciferase activities were quantified using Dual-Luciferase Assay (Promega, Madison, WI, USA). […]

T1 sequence (P08684 whole entry): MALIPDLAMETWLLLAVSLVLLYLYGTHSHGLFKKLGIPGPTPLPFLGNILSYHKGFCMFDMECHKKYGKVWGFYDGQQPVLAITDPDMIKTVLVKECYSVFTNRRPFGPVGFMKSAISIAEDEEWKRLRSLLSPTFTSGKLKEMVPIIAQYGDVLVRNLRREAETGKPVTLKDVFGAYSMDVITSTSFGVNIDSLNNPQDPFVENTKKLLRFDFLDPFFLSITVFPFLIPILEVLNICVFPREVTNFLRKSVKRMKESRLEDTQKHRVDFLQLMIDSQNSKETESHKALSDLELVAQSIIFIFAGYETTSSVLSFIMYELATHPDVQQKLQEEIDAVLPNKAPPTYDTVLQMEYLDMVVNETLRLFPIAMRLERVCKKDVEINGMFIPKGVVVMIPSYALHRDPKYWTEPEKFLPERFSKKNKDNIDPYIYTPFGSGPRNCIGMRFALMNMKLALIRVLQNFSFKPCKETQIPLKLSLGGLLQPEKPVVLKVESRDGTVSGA

Structure (SMILES): CCCCCC1=C(NCC)C(=O)C(CC=C(C)CCC=C(C)C)=C(O)C1=O [VCE-003.2, 2-(3,7-dimethyl-octa-2,6-dienyl)-6-ethylamino-3-hydroxy-5-pentyl-(1,4) benzoquinone]
- IC50 (CYP3A4; Substrate = Midazolam): > 25 µM
- IC50 (CYP3A4; Substrate = Testosterone): > 25 µM
- CTIP2 reporter (A4-MARS luciferase) activity [1]: CTIP2 reporter activation
